ChEMBL document CHEMBL4513135, “CO-ADD screening of IQOG CSIS (Spain) compounds”
Values after ≈ are worked out from the molar mass of the structure shown.

Experiments:
HEK293 = assay: cells; type: functional; settings: Homo sapiens, ATCC CRL1573, HEK293; ASSAY_TEST Inhibition of Cell Viability; detection method Resazurin; Fluorescence (ex560/em590); MEDIA DMEM with 10% FBS; plate type 384well; TC; CORNING #3712; time 18 hr
Staphylococcus aureus = assay: microbe, parasite or virus in culture; settings: ATCC 43300, 18 h, ASSAY_TEST Inhibition of Bacterial Growth, detection method Absorption (OD600), MEDIA CAMHB, plate type 384well, NBS, CORNING #3640
Escherichia coli = assay: microbe, parasite or virus in culture; settings: ATCC 25922, 18 h, ASSAY_TEST Inhibition of Bacterial Growth, detection method Absorption (OD600), MEDIA CAMHB, plate type 384well, NBS, CORNING #3640
Klebsiella pneumoniae = assay: microbe, parasite or virus in culture; settings: ATCC 700603, 18 h, ASSAY_TEST Inhibition of Bacterial Growth, detection method Absorption (OD600), MEDIA CAMHB, plate type 384well, NBS, CORNING #3640
Pseudomonas aeruginosa = assay: microbe, parasite or virus in culture; settings: ATCC 27853, 18 h, ASSAY_TEST Inhibition of Bacterial Growth, detection method Absorption (OD600), MEDIA CAMHB, plate type 384well, NBS, CORNING #3640
Acinetobacter baumannii = assay: microbe, parasite or virus in culture; settings: ATCC 19606, 18 h, ASSAY_TEST Inhibition of Bacterial Growth, detection method Absorption (OD600), MEDIA CAMHB, plate type 384well, NBS, CORNING #3640
Candida albicans = assay: microbe, parasite or virus in culture; settings: ATCC 90028, ASSAY_TEST Inhibition of Fungal Growth, detection method Absorption (OD530), plate type 384well, NBS, CORNING #3640

| SMILES | MIC (Cryptococcus neoformans) [µg/mL] | MIC (Staphylococcus aureus) [µg/mL] | MIC (Escherichia coli) [µg/mL] | MIC (Klebsiella pneumoniae) [µg/mL] | MIC (Pseudomonas aeruginosa) [µg/mL] | MIC (Acinetobacter baumannii) [µg/mL] | MIC (Candida albicans) [µg/mL] | CC50 (HEK293) [µg/mL] |
| --- | --- | --- | --- | --- | --- | --- | --- | --- |
| C#CCN(C)c1nc(NCCCCC2CCN(Cc3ccccc3)CC2)c(C#N)c(-c2ccccc2)c1C#N.Cl | 16 | > 32 | > 32 | > 32 | > 32 | > 32 | > 32 | 4.12 |
| Oc1ccc(CCl)c2cccnc12 | 16 (≈ 82.6 µM) | > 32 | > 32 | > 32 | 32 (≈ 165 µM) | > 32 | > 32 | 5.81 (≈ 30 µM) |
| CCOC(=O)c1c(C)nc(NCCCCC2CCN(Cc3ccccc3)CC2)c(C#N)c1-c1ccccc1 | > 32 | > 32 | > 32 | > 32 | > 32 | > 32 | > 32 | 18.8 (≈ 36.8 µM) |
| N#CC1(Br)C(=N)Oc2ccc3ccccc3c2C1c1ccccc1[N+](=O)[O-] (centres undefined) | > 32 | > 32 | > 32 | > 32 | > 32 | > 32 | > 32 | 5.83 (≈ 13.8 µM) |
| CC(C)(C)OC(=O)n1c(COC(=O)NC2CCN(Cc3ccccc3)CC2)cc2cc(OCc3ccccc3)ccc21.O=C(O)C(=O)O | 16 | > 32 | > 32 | > 32 | > 32 | > 32 | 32 | 9.19 |
| O=C(CI)NCc1ccccc1 | 16 (≈ 58.2 µM) | > 32 | > 32 | > 32 | > 32 | > 32 | > 32 | 8.25 (≈ 30 µM) |
| CC#CCN(C)Cc1cc2cc(OCc3ccccc3)ccc2[nH]1.O=C(O)C(=O)O | > 32 | > 32 | > 32 | > 32 | > 32 | > 32 | > 32 | > 32 |
| N#Cc1c(N)[n+]([O-])c2ccccc2[n+]1[O-] | > 32 | > 32 | 16 (≈ 79.1 µM) | > 32 | > 32 | > 32 | > 32 | > 32 |
| COc1nc2n[nH]c(N)c2c(-c2ccccc2)c1C#N | > 32 | > 32 | > 32 | > 32 | > 32 | > 32 | > 32 | 5.47 (≈ 20.6 µM) |
| C#CCN(C)Cc1cc2cc(OCCCCC3CCN(Cc4ccccc4)CC3)ccc2n1C.Cl | > 32 | > 32 | > 32 | > 32 | > 32 | > 32 | > 32 | > 32 |
| COc1ccc(OC)c2nc(Cl)c(C=O)cc12 | > 32 | > 32 | > 32 | > 32 | > 32 | > 32 | > 32 | > 32 |
| CN(Cc1cn(-c2ccccc2)nn1)Cc1cc2cc(OCCCC3CCN(Cc4ccccc4)CC3)ccc2n1C.Cl | > 32 | > 32 | > 32 | > 32 | > 32 | > 32 | > 32 | 3.55 |
| Cc1ccc2nc(Cl)c(/C=N/O)cc2c1 | > 32 | > 32 | > 32 | > 32 | > 32 | > 32 | > 32 | > 32 |
| C#CCNc1ccc(Cl)cn1 | > 32 | > 32 | > 32 | > 32 | > 32 | > 32 | > 32 | > 32 |
| N#CC(C#N)=Cc1cccc([N+](=O)[O-])c1 | > 32 | > 32 | > 32 | > 32 | 32 (≈ 161 µM) | > 32 | > 32 | > 32 |
| C#CCN(C)Cc1cc2cc(OCc3ccccc3)ccc2[nH]1.O=C(O)C(=O)O | > 32 | > 32 | > 32 | > 32 | > 32 | > 32 | 32 | > 32 |
| C#CCN(C)Cc1cc2cc(OCCCC3CCN(Cc4ccccc4)CC3)ccc2[nH]1.O=C(O)C(=O)O | > 32 | > 32 | > 32 | > 32 | > 32 | > 32 | > 32 | 13.4 |
| C#CCN(C)c1nc(N)c(C#N)c(-c2ccccc2)c1C#N | > 32 | > 32 | > 32 | > 32 | > 32 | > 32 | > 32 | > 32 |
| N#CC1=C(N)Oc2c(ccc3ccccc23)C1c1ccccc1[N+](=O)[O-] (centres undefined) | > 32 | > 32 | > 32 | > 32 | > 32 | > 32 | > 32 | > 32 |

Further lines, with some results ahead:

| MIC (Cryptococcus neoformans) [µg/mL] | MIC (Staphylococcus aureus) [µg/mL] | MIC (Escherichia coli) [µg/mL] | MIC (Klebsiella pneumoniae) [µg/mL] | MIC (Pseudomonas aeruginosa) [µg/mL] | MIC (Acinetobacter baumannii) [µg/mL] | MIC (Candida albicans) [µg/mL] | SMILES | CC50 (HEK293) [µg/mL] |
| --- | --- | --- | --- | --- | --- | --- | --- | --- |
| > 32 | > 32 | > 32 | > 32 | > 32 | > 32 | 32 (≈ 100 µM) | CCOC(=O)C1=C(C)OC(N)=C(C#N)C1c1ccc(Cl)cc1 (centres undefined) | > 32 |
| > 32 | > 32 | > 32 | > 32 | > 32 | > 32 | > 32 | N#CC1=C(N)Oc2ccc3ccccc3c2C1c1ccc([N+](=O)[O-])cc1 (centres undefined) | 1.88 (≈ 5.48 µM) |
| 32 | > 32 | > 32 | > 32 | > 32 | > 32 | > 32 | C#CCN(C)c1nc(NCCCC2CCN(Cc3ccccc3)CC2)c(C#N)c(-c2ccccc2)c1C#N.Cl | 8.06 |
| > 32 | > 32 | > 32 | > 32 | > 32 | > 32 | 32 (≈ 102 µM) | CC1=C(C(=O)OC(C)(C)C)C(c2ccccc2)C(C#N)=C(N)O1 (centres undefined) | > 32 |
| – | 32 | > 32 | > 32 | > 32 | > 32 | > 32 | CCOC(=O)C1=C(C)Nc2nc3c(c(N)c2C1c1ccccc1OC)CCCC3.Cl (centres undefined) | – |
| > 32 | > 32 | > 32 | > 32 | > 32 | > 32 | > 32 | Cc1ccc2nc(Cl)c(/C=N/Cc3ccccc3)cc2c1 | > 32 |
| > 32 | > 32 | > 32 | > 32 | > 32 | > 32 | 32 (≈ 154 µM) | COc1ccc(CCl)c2cccnc12 | > 32 |
| > 32 | 32 (≈ 81.3 µM) | > 32 | > 32 | > 32 | > 32 | > 32 | CCOC(=O)C1=C(C)Nc2nc3c(c(N)c2C1c1ccccc1OC)CCCC3 (centres undefined) | – |
| > 32 | > 32 | > 32 | > 32 | > 32 | > 32 | > 32 | Nc1c2c(nc3c1CC(c1ccccc1)C(=O)N3)CCCC2 (centres undefined) | 11.3 (≈ 38.5 µM) |
| 32 (≈ 65.5 µM) | > 32 | > 32 | > 32 | > 32 | > 32 | > 32 | C#CCNc1nc(NCCCC2CCN(Cc3ccccc3)CC2)c(C#N)c(-c2ccccc2)c1C#N | 16 (≈ 32.7 µM) |
| 32 (≈ 120 µM) | > 32 | > 32 | > 32 | 32 (≈ 120 µM) | > 32 | > 32 | COc1ccc2[nH]c3nc4c(c(N)c3c2c1)CCCC4 | 15 (≈ 56.1 µM) |
| > 32 | > 32 | > 32 | > 32 | > 32 | > 32 | > 32 | CC1CC(=O)Nc2c1c(Br)nc1nc3c(c(N)c21)CCCC3 (centres undefined) | 4.01 (≈ 11.1 µM) |
| 32 (≈ 156 µM) | > 32 | > 32 | > 32 | > 32 | > 32 | > 32 | Cc1ccc2nc(Cl)c(C=O)cc2c1 | 24.1 (≈ 117 µM) |
| > 32 | > 32 | > 32 | > 32 | > 32 | > 32 | 16 (≈ 82.6 µM) | COc1nc(Cl)c(C#N)cc1C#N | 0.56 (≈ 2.89 µM) |
| > 32 | > 32 | > 32 | > 32 | > 32 | > 32 | > 32 | C=C=CCN(C)Cc1cc2cc(OCc3ccccc3)ccc2n1C.O=C(O)C(=O)O | 1.61 |
